These are literature values, as cited in article PMC13601336 (Frontiers in Pharmacology, 2026).

pKi: −log10 of the molar value.

For this data set, the target named is T1, UGT1A1 (Homo sapiens, UniProt P22309).
T1 construct: purchased BD Gentest (Woburn, MA, USA)
T1 sequence (P22309 26-533): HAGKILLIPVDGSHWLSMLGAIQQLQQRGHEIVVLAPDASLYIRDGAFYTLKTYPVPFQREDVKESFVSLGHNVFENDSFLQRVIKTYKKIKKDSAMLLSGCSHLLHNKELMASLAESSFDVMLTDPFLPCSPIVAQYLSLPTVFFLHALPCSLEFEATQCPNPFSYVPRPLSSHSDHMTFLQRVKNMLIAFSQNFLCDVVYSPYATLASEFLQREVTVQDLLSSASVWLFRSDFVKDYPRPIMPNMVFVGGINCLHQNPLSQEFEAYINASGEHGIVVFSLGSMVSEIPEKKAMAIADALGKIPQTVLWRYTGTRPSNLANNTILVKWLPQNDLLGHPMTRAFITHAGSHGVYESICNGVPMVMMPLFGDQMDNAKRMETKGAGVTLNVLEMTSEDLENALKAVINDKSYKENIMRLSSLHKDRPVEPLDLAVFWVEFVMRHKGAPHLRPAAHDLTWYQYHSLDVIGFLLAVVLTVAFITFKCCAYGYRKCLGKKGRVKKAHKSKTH
The conditions noted are these: ref Zhang et al., 2021.

On to `O=c1c(O)c(-c2ccc(O)c(O)c2)oc2cc(O)cc(O)c12` [Quercetin, quercetin], for which the pKi – broadly, −log10 of the Ki, conventionally taken in molar units – is 5.66.
